Test results as given in article PMC6590375 (Journal of Clinical Pharmacology, 2019).
Read-outs that look alike come from different tables or passages of the source.

Columns and labels:
[1] = type: in vivo, human; conditions: for AUCinf central value, higher than in subjects with normal renal function: regression analyses
[2] = cited from earlier work
[3] = human, plasma, oral
[4] = type: in vivo, human
[5] = mild renal impairment (N = 6), single 15-mg extended-release dose, fasting
[6] = normal renal function (N = 6), single 15-mg extended-release dose, fasting
[7] = severe renal impairment (N = 6), single 15-mg extended-release dose, fasting
[8] = single 15 mg dose, all subjects

CL renal ([1]; both, human, urine and plasma, oral, 15 mg): 32.7 mL/min
fe (fraction of dose excreted unchanged in urine), arithmetic mean ± SD [1, 5]: 7.03 ± 3.05%
fe (fraction of dose excreted unchanged in urine), geometric mean [1, 5]: 6.51%
CLR (renal clearance), arithmetic mean ± SD [1, 6]: 5.64 ± 2.13 L/h
fe (fraction of dose excreted unchanged in urine), arithmetic mean ± SD [1, 6]: 9.91 ± 4.05%
fe (fraction of dose excreted unchanged in urine), geometric mean [1, 6]: 9.24%
AUCinf central value, higher than in subjects with normal renal function ([1]; mild renal impairment): 18%
AUCinf central value, higher than in subjects with normal renal function ([1]; moderate renal impairment): 33%
AUCinf central value, higher than in subjects with normal renal function ([1]; severe renal impairment): 44%
fe (fraction of dose excreted unchanged in urine), arithmetic mean ± SD [1, 7]: 2.48 ± 1.62%
fe (fraction of dose excreted unchanged in urine), geometric mean [1, 7]: 2.10%
CL renal [3]: ~400 mL/min
SMILES: CC[C@@H]1CN(C(=O)NCC(F)(F)F)C[C@@H]1c1cnc2cnc3[nH]ccc3n12 [Upadacitinib]
Immediate-release dose eliminated in urine as unchanged upadacitinib ([2]; immediate-release formulation): Approximately 20%
Dose proportionality of plasma exposures ([2]; over the range of immediate-release or extended-release doses evaluated in clinical studies): approximately dose‐proportional
Adverse events ([4]; one subject in the mild renal impairment group, mild, reasonable possibility of being related to study drug, no other adverse events reported): diarrhea and upper respiratory infection
Physical exam, vital signs, electrocardiogram and laboratory findings [4, 8]: no clinically significant physical exam findings, vital sign measurements, electrocardiogram abnormalities, or laboratory test abnormalities
Tolerability [4, 8]: well tolerated
